Source: ChEMBL document CHEMBL1201862, “PubChem BioAssay data set” (2004)
The source made the active and inactive calls.

What was measured:
[1] = target: DNA dC->dU-editing enzyme APOBEC-3A (Homo sapiens, UniProt P31941); assay: SAR analysis of small molecule inhibitors of APOBEC3A DNA Deaminase via a fluorescence-based single-stranded DNA deaminase assay.; type: functional; conditions: read-out: IC50_Mean
[2] = target: DNA dC->dU-editing enzyme APOBEC-3G (Homo sapiens, UniProt Q9HC16); assay: APOBEC3G deaminase inhibitors, SAR follow-up, biochemical, fluorescence, single-stranded DNA substrate (AID 602136); type: functional; conditions: read-out: IC50_Mean
[3] = target: T1, DNA repair and recombination protein RAD54-like (Homo sapiens, UniProt Q92698); assay: inhibitors of human RAD54 branch migration, confirmation, biochemical, fluorescence, cherry-picked samples, dose series (AID 651657); type: functional
T1 sequence (Q92698 whole entry): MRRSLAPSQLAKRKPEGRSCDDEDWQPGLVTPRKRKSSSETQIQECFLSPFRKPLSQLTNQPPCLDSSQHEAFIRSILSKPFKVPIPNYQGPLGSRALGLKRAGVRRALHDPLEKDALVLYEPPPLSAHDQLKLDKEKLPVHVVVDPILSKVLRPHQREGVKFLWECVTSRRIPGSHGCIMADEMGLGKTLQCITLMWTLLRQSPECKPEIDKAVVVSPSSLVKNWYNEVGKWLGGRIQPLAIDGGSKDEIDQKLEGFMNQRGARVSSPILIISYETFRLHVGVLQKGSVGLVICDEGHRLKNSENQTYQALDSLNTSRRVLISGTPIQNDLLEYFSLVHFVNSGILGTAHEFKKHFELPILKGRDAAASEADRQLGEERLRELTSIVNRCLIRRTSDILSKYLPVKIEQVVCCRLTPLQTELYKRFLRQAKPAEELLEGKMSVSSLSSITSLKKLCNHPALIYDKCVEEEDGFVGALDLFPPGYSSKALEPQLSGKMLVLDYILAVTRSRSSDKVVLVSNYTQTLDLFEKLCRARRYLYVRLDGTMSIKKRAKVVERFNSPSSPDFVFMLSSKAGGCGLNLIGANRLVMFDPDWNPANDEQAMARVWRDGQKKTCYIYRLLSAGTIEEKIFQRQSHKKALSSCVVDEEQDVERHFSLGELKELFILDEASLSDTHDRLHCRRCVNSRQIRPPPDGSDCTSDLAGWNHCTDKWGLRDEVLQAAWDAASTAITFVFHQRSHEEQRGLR

[4] = target: T2, Methionyl-tRNA synthetase, putative (Trypanosoma brucei brucei, UniProt Q38C91); type: functional, Trypanosoma brucei brucei strain 927/4 GUTat10.1
T2 sequence (Q38C91 whole entry): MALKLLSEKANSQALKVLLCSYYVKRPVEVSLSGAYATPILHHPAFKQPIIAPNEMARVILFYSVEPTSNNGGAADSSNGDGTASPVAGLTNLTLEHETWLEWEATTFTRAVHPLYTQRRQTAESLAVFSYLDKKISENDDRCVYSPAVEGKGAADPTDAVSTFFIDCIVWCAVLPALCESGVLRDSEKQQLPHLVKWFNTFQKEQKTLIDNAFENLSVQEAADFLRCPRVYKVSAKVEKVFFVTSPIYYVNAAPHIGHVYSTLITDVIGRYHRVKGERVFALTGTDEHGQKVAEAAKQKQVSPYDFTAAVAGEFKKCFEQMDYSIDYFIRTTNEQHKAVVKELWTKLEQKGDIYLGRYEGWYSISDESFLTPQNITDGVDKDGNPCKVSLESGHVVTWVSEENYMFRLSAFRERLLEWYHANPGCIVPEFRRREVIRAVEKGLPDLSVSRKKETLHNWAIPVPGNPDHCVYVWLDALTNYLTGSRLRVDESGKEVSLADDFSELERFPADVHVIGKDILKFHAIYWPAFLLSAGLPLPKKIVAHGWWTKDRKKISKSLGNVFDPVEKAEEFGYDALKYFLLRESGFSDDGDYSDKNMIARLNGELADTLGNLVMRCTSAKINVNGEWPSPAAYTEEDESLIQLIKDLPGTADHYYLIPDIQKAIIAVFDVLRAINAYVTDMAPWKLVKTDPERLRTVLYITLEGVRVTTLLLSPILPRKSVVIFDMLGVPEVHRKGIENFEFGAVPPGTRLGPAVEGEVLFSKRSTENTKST

[5] = target: T2, Methionyl-tRNA synthetase, putative; type: functional, Trypanosoma brucei brucei strain 927/4 GUTat10.1; remark: listed apart in the source
[6] = target: T3, Calpain-2 catalytic subunit (Sus scrofa, UniProt P43367); assay: pig calpain II inhibitor potency, dose response, biochemical, fluorogenic peptide substrate (AID 1420); type: functional
T3 sequence (P43367 whole entry): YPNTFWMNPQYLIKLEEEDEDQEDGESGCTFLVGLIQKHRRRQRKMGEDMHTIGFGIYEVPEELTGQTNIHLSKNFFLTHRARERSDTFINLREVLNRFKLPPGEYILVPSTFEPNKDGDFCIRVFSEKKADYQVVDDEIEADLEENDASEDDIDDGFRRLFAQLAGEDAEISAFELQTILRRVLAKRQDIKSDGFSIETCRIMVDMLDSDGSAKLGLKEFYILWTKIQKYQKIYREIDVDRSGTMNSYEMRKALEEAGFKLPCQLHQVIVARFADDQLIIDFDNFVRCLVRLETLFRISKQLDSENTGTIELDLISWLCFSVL

[7] = Counterscreen for inhibitors of Trypanosoma brucei methionyl tRNA synthetase (MetRS): Luminescence-based cell-based high throughput dose response assay to identify compounds that are cytotoxic to Jurkat human T lymphocyte cells.; type: functional
[8] = target: T4, Polyadenylate-binding protein 1 (Homo sapiens, UniProt P11940); assay: PABP1 MLLE–PAM2 interaction inhibitors, dose response, miRNA deadenylation inhibitor project, biochemical, fluorescence polarization, Cy5-PAM2 peptide, secondary (AID 602260); type: functional; conditions: read-out: IC50_Mean
[9] = THP-1 cell cytotoxicity, dose response, cytotoxicity control for Vif-APOBEC3G degradation inhibitor project, THP-1 cells (AID 1117359); type: functional; conditions: Human immunodeficiency virus 1, THP-1
[10] = target: Induced myeloid leukemia cell differentiation protein Mcl-1 (Homo sapiens, UniProt Q07820); type: functional
[11] = target: T5, Apoptotic protease-activating factor 1 (Homo sapiens, UniProt O14727); type: functional
T5 sequence (O14727 whole entry): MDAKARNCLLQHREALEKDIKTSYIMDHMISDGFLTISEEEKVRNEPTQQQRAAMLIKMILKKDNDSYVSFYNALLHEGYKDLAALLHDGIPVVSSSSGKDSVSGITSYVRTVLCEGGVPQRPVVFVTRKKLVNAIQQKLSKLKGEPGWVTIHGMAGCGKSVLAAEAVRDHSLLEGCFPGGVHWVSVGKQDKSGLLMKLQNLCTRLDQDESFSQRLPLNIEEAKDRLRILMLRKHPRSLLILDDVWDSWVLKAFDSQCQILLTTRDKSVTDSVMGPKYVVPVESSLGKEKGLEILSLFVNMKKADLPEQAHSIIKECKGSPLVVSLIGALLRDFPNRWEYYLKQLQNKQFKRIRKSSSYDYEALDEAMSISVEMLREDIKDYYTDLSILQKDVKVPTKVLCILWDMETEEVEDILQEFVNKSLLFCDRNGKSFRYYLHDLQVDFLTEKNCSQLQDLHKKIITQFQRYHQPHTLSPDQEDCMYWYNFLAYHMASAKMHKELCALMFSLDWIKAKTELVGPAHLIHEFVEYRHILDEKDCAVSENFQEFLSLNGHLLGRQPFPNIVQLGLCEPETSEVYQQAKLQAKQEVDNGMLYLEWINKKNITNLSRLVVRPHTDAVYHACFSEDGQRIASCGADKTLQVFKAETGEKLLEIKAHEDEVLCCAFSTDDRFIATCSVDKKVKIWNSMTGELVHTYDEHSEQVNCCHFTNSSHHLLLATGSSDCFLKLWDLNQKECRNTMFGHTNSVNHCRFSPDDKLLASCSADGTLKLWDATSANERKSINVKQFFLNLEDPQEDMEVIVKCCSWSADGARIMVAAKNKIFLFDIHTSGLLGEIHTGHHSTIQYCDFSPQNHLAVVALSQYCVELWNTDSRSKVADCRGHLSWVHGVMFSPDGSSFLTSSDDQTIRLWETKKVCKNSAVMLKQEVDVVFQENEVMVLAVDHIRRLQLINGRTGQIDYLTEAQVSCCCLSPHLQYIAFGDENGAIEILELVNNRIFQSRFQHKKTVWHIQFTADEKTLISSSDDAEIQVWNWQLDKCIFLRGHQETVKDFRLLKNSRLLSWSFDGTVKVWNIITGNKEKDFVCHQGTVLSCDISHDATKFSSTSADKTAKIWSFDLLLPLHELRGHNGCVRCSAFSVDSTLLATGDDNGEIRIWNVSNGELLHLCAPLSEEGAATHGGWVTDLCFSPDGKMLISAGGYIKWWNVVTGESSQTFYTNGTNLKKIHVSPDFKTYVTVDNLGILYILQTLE

[12] = target: T4, Polyadenylate-binding protein 1; assay: PABP1 MLLE–PAM2 binding inhibitor potency, dose response, biochemical, fluorescence polarization, FITC-PAM2 peptide (AID 602259); type: functional; conditions: read-out: IC50_Mean
Cytochrome P450 2C9 = Cytochrome P450 2C9 (Homo sapiens, UniProt P11712)
[13] = control 3'UTR Renilla luciferase suppression, dose response, counter-screen for Shn3 inhibitor project, cell-based, Clone20-Shn3RL, cherry-picked (AID 624133); type: functional
[14] = HepG2 cell cytotoxicity, dose response, cytotoxicity control for Shn3 inhibitor project, CellTiter-Glo, cherry-picked (AID 624134); type: functional, cell-based
[15] = Shn3 3'UTR reporter inhibitors, dose response, cell-based, Clone20 osteoblasts, firefly luciferase, cherry-picked (AID 624132); type: functional;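 note: firefly luciferase luminescence from reporter carrying the Shn3 3'UTR in osteoblasts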
[16] = target: T6, DNA repair protein RAD52 homolog (Homo sapiens, UniProt P43351); type: functional, biochemical
T6 sequence (P43351 whole entry): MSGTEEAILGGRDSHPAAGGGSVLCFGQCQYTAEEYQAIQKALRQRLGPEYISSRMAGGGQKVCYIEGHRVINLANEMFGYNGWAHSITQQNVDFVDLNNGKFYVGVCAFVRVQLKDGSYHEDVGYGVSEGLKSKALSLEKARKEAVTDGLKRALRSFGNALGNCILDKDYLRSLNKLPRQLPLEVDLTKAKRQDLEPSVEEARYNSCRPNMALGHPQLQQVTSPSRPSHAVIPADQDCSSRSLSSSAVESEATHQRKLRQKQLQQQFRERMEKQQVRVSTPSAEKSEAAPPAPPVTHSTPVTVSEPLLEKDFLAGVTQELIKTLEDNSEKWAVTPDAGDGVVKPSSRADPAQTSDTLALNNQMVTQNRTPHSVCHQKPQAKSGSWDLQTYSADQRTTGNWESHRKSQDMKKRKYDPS

[17] = tested on: Streptococcus sp. 'group A'; assay: growth inhibition of control SK(-) GAS strain, dose response, counter-screen for streptokinase expression inhibitor project, luminescence, kanamycin, BacTiterGlo, confirmation (AID 1900); type: functional, organism-based
Streptococcus = assay: Group A Streptococcus viability loss, dose response, counter-screen for streptokinase expression inhibitor project, luminescence, BacTiterGlo (AID 1915); type: functional, organism-based;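 note: potency for reduction of bacterial viability or growth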
Streptokinase A = target: T7, Streptokinase A (Streptococcus pyogenes serotype M1, UniProt P10520); assay: S. pyogenes streptokinase expression inhibitors, potency, dose response, plasminogen activation absorbance, OD405 (AID 1914); type: functional, Streptococcus pyogenes M1 GAS;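 note: secreted streptokinase activity via plasminogen activation per viability signal from cell pellet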
T7 sequence (P10520 whole entry): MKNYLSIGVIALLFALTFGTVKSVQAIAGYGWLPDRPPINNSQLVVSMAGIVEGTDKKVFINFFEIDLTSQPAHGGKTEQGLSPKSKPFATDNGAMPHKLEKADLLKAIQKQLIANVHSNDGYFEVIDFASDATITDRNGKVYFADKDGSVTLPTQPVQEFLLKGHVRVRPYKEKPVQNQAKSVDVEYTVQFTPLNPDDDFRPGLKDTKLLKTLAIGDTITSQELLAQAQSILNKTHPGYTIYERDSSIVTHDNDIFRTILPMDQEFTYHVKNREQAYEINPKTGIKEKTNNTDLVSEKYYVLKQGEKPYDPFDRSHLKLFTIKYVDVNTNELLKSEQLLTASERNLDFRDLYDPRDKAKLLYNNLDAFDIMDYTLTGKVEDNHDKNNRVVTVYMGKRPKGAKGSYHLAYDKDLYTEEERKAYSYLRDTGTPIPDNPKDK

DNA dC->dU-editing enzyme APOBEC-3G, sequence (Q9HC16 whole entry): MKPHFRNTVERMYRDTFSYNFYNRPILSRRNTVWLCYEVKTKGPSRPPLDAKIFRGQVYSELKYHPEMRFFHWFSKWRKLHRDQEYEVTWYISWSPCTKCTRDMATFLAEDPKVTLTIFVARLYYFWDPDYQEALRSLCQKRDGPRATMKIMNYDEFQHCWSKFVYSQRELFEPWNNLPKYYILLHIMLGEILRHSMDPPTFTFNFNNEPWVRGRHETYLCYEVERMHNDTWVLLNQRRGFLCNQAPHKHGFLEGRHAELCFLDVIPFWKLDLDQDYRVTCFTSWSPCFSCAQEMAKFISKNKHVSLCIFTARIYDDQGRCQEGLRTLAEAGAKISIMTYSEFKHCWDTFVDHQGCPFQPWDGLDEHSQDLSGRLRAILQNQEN
DNA dC->dU-editing enzyme APOBEC-3A, sequence (P31941 whole entry): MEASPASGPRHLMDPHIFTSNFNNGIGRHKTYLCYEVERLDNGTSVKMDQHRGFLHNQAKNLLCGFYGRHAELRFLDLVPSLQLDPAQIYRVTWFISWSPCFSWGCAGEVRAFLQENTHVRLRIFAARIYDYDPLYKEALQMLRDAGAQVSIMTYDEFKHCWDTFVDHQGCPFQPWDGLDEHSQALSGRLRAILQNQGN
T4 sequence (P11940 whole entry): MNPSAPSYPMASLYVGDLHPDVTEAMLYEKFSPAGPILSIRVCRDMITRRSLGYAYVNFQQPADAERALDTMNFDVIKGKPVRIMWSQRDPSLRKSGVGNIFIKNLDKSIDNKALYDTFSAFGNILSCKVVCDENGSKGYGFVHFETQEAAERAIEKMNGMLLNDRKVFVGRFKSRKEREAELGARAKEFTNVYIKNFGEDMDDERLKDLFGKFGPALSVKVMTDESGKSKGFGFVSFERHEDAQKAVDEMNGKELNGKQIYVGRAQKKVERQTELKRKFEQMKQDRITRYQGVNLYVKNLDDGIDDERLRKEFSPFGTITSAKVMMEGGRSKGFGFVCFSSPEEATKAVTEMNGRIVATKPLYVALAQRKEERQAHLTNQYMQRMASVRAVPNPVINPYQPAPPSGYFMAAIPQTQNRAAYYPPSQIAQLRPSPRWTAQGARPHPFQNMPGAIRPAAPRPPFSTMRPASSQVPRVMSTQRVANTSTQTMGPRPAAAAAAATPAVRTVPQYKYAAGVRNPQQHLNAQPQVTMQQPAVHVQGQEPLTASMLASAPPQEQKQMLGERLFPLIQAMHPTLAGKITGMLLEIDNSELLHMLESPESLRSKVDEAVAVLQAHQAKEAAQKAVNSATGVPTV
Induced myeloid leukemia cell differentiation protein Mcl-1, sequence (Q07820 whole entry): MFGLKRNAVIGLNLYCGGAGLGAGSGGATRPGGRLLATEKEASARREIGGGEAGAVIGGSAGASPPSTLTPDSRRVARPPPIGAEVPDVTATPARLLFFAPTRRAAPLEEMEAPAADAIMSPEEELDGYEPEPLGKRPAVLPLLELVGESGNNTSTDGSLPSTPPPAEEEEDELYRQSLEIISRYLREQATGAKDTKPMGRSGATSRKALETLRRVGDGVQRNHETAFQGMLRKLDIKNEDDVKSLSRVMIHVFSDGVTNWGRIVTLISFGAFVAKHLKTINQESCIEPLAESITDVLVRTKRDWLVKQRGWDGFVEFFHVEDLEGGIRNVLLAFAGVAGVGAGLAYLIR
Cytochrome P450 2C9, sequence (P11712 whole entry): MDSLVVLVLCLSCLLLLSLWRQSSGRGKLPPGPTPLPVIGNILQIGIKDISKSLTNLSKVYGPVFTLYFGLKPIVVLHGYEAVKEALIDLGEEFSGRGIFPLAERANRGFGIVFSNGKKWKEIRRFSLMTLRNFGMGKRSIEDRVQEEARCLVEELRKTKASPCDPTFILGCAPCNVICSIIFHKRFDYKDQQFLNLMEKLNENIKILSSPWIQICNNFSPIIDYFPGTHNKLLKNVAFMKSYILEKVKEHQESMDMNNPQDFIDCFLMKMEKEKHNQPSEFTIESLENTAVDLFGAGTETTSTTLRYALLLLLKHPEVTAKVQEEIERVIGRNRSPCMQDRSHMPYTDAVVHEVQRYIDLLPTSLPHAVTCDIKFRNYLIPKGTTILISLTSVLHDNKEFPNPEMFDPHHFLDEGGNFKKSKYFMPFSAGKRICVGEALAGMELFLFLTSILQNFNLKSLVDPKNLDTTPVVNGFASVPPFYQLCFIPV

O=C(c1nn2c(C(F)(F)F)cc(-c3ccc(Cl)cc3)nc2c1Cl)N1CCCC1
IC50 [1]: > 99 µM (inactive)
IC50 [2]: > 99 µM (inactive)

COc1ccc(Nc2c3c(nc4ccc(C)cc24)CCC3)cc1
AC50 [3]: 84.4 µM (active)

O=C(NCc1cccs1)c1cccc(Nc2nc3cc(Br)ccc3[nH]2)c1
IC50 [4]: 38.7 µM (inactive)
IC50 [5]: 31.3 µM (inactive)
IC50 [6]: 11.1 µM (not active)
IC50 [7]: 83.1 µM (inactive)

COc1ccc2c(c1)c1ccc3c(c1n2C)C(=O)C=CC3=O
IC50 [8]: > 66 µM (inactive)
CC50 [9]: 18 µM (active)
IC50 [10]: 0.946 µM (active)
IC50 [11]: 19.3 µM (active)
IC50 [12]: 58.5 µM (inactive)

C#CCSc1nnc(-c2cc3c(C(F)(F)F)nn(C)c3s2)n1C
IC50 [1]: > 99 µM (inactive)
IC50 [2]: > 99 µM (inactive)
AC50 (Cytochrome P450 2C9): inconclusive

O=C(c1ccc(Cl)cc1)C1CCCN(Cc2cccc3ncccc23)C1 (centres undefined)
AC50 [13]: 7.83 µM (active)
AC50 [14]: > 70 µM (inactive)
AC50 [15]: 4.52 µM (active)

Cc1cccn2c(=O)c3cc(C(=O)NCCN4CCOCC4)c(=N)n(CCN4CCOCC4)c3nc12
AC50 [3]: 15.9 µM (active)
AC50 [16]: 13.7 µM (active)

S=C(NCc1cccs1)Nc1cc(Cl)cc(Cl)c1
IC50 [4]: 24.6 µM (inactive)
IC50 [5]: 104 µM (inactive)
EC50 [17]: 5.49 µM (active)
EC50 (Streptococcus): 13.7 µM (active)
EC50 (Streptokinase A): > 150 µM (not active)
IC50 [7]: 34.5 µM (inactive)

COc1cc(CNc2[nH]cnc3c4cc(C)ccc4nc2-3)cc(OC)c1
IC50 [4]: 2.32 µM (active)
IC50 [5]: 1.46 µM (active)
IC50 [7]: 27.8 µM (inactive)
